Laboratory results: ChEMBL document CHEMBL1201862, “PubChem BioAssay data set” (2004)
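Dose response: 5 concentrations. Exposure: 48 h. Format: 96-well plates. Endpoint: linear interpolation; highest concentration if not reached. Here, GI50 denotes the concentration required for 50% inhibition of growth.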 Activity calls are given as the source filed them. Cut-off read from the data, not from the text of the source: active = GI50 up to about 1.1 µM and inactive = higher.

How the values were obtained:
Assay in all cases: growth of human tumour cells (NCI), 48 h
[1] = test system: K562
[2] = test system: SF-295
[3] = test system: Malme-3M
[4] = test system: MDA-MB-435
[5] = test system: HOP-62
[6] = test system: SNB-19
[7] = test system: HL-60
[8] = test system: SK-OV-3
[9] = test system: MDA-N
[10] = test system: T47D
[11] = test system: RXF 393
[12] = test system: COLO 205
[13] = test system: NCI-H23
[14] = test system: HCT-15
[15] = test system: EKVX
[16] = test system: NCI-H460
[17] = test system: DU-145
[18] = test system: SF-268
[19] = test system: RPMI-8226
[20] = test system: SR

N#Cc1c(-c2ccccc2)c(/N=N/c2ccc(F)cc2)c(=O)n2c1[nH]c1ccccc12
GI50 [1]: 3.18 µM (inactive)
GI50 [2]: 5.25 µM (inactive)
GI50 [3]: 7.6 µM (inactive)
GI50 [4]: 4.7 µM (inactive)
GI50 [5]: 6.15 µM (inactive)
GI50 [6]: 5.05 µM (inactive)
GI50 [7]: 1.46 µM (inactive)
GI50 [8]: 4.86 µM (inactive)
GI50 [9]: 4.17 µM (inactive)
GI50 [10]: 4.05 µM (inactive)
GI50 [11]: 10.4 µM (inactive)
GI50 [12]: 3.43 µM (inactive)
GI50 [13]: 5.28 µM (inactive)
GI50 [14]: 3.33 µM
GI50 [15]: 2.45 µM (inactive)
GI50 [16]: 2.31 µM (inactive)
GI50 [17]: 4.48 µM (inactive)
GI50 [18]: 6.43 µM (inactive)
GI50 [19]: 0.708 µM (active)
GI50 [20]: 3.81 µM (inactive)

NS(=O)(=O)c1ccc(NNC(=O)c2cccc3c(=O)c4ccccc4[nH]c23)cc1
GI50 [1]: 41.7 µM (inactive)
GI50 [2]: 91 µM (inactive)
GI50 [3]: 78.3 µM (inactive)
GI50 [4]: 88.1 µM (inactive)
GI50 [5]: > 100 µM (inactive)
GI50 [6]: > 100 µM (inactive)
GI50 [7]: 35 µM (inactive)
GI50 [8]: > 100 µM (inactive)
GI50 [9]: > 100 µM (inactive)
GI50 [10]: 48.4 µM (inactive)
GI50 [11]: 60.4 µM (inactive)
GI50 [12]: > 100 µM (inactive)
GI50 [13]: > 100 µM (inactive)
GI50 [14]: 62.8 µM
GI50 [15]: 43.6 µM (inactive)
GI50 [16]: 87.7 µM (inactive)
GI50 [17]: > 100 µM (inactive)
GI50 [18]: 71.8 µM (inactive)
GI50 [19]: 54.7 µM (inactive)
GI50 [20]: 49.8 µM (inactive)

COc1cc(-c2coc3c(OC)c(OC4OC(CO)C(O)C(O)C4O)c(OC)cc3c2=O)cc(OC)c1C (stereo not drawn)
GI50 [1]: 7.29 µM (inactive)
GI50 [2]: 11.7 µM (inactive)
GI50 [3]: 15.3 µM (inactive)
GI50 [4]: 3.85 µM (inactive)
GI50 [5]: 15.2 µM (inactive)
GI50 [6]: 6.81 µM (inactive)
GI50 [7]: 4.53 µM (inactive)
GI50 [8]: 7.96 µM (inactive)
GI50 [9]: 2.21 µM (inactive)
GI50 [10]: 9.14 µM (inactive)
GI50 [11]: 2.56 µM (inactive)
GI50 [12]: 17.9 µM (inactive)
GI50 [13]: 3.98 µM (inactive)
GI50 [14]: 3.66 µM
GI50 [15]: 11.8 µM (inactive)
GI50 [16]: 8.75 µM (inactive)
GI50 [17]: 8.41 µM (inactive)
GI50 [18]: 4.84 µM (inactive)
GI50 [19]: 4.54 µM (inactive)
GI50 [20]: 4.35 µM (inactive)

NC1=C(N2CCOCC2)C(=O)NC2=N/C(=C\c3ccccc3)C(=O)N21
GI50 [1]: 26.1 µM (inactive)
GI50 [2]: 3.87 µM (inactive)
GI50 [3]: > 100 µM (inactive)
GI50 [4]: > 100 µM (inactive)
GI50 [6]: > 100 µM (inactive)
GI50 [7]: 17.9 µM (inactive)
GI50 [8]: > 100 µM (inactive)
GI50 [9]: > 100 µM (inactive)
GI50 [10]: 81.3 µM (inactive)
GI50 [11]: > 100 µM (inactive)
GI50 [12]: > 100 µM (inactive)
GI50 [13]: > 100 µM (inactive)
GI50 [14]: 84.3 µM
GI50 [15]: > 100 µM (inactive)
GI50 [16]: > 100 µM (inactive)
GI50 [17]: > 100 µM (inactive)
GI50 [18]: > 100 µM (inactive)
GI50 [19]: 47.4 µM (inactive)
GI50 [20]: 49.2 µM (inactive)

COc1ccc(C(OC(C)=O)C2C(=C(C#N)C#N)c3ccccc3C2=C(C#N)C#N)cc1 (stereo not drawn)
GI50 [1]: 30.1 µM (inactive)
GI50 [2]: 19.9 µM (inactive)
GI50 [4]: 36.7 µM (inactive)
GI50 [5]: 20.8 µM (inactive)
GI50 [7]: 18.5 µM (inactive)
GI50 [8]: 18.6 µM (inactive)
GI50 [9]: 42.1 µM (inactive)
GI50 [10]: 70 µM (inactive)
GI50 [11]: 67.9 µM (inactive)
GI50 [13]: 25.9 µM (inactive)
GI50 [14]: 31.2 µM
GI50 [15]: 39.4 µM (inactive)
GI50 [16]: 28.1 µM (inactive)
GI50 [17]: 64.9 µM (inactive)
GI50 [18]: 35.6 µM (inactive)
GI50 [19]: 25.5 µM (inactive)
GI50 [20]: 16.1 µM (inactive)

O=C1C(Br)=CC2(C=C1Br)CCNC1=C2C(=O)c2[nH]cnc2C1=O
GI50 [1]: 12.4 µM (inactive)
GI50 [2]: 16.2 µM (inactive)
GI50 [4]: 11 µM (inactive)
GI50 [5]: 17.2 µM (inactive)
GI50 [7]: 4.79 µM (inactive)
GI50 [8]: 21.5 µM (inactive)
GI50 [9]: 1.77 µM (inactive)
GI50 [10]: 15.6 µM (inactive)
GI50 [11]: 16.3 µM (inactive)
GI50 [12]: 21.3 µM (inactive)
GI50 [13]: 12.6 µM (inactive)
GI50 [14]: 15.6 µM
GI50 [15]: 18.1 µM (inactive)
GI50 [16]: 16.7 µM (inactive)
GI50 [17]: 16 µM (inactive)
GI50 [18]: 14.8 µM (inactive)
GI50 [19]: 14.5 µM (inactive)
GI50 [20]: 30.1 µM (inactive)

c1ccc(-c2cc(C3CO3)c3ccccc3n2)cc1 (stereo not drawn)
GI50 [1]: 34.4 µM (inactive)
GI50 [2]: 35.2 µM (inactive)
GI50 [4]: 18.9 µM (inactive)
GI50 [5]: 26.5 µM (inactive)
GI50 [6]: 29.1 µM (inactive)
GI50 [7]: 26.9 µM (inactive)
GI50 [8]: 35 µM (inactive)
GI50 [9]: 19.1 µM (inactive)
GI50 [10]: 18.9 µM (inactive)
GI50 [11]: 13.5 µM (inactive)
GI50 [12]: 19.7 µM (inactive)
GI50 [13]: 19.1 µM (inactive)
GI50 [14]: 19.5 µM
GI50 [15]: 18.2 µM (inactive)
GI50 [16]: 18.8 µM (inactive)
GI50 [17]: 16.9 µM (inactive)
GI50 [18]: 20 µM (inactive)
GI50 [19]: 21.9 µM (inactive)
GI50 [20]: 18.3 µM (inactive)
